{
  "source": "patent US7262301B1",
  "about": "“Zinc-chelating ratiometric fluorescent probes and related methods” (Northwestern University, priority 2003, dated 2007)",
  "key": {"[1]": {"details": "10 μM ligand, 1 μM Zn(II), pH 7.20, 0.1 M ionic strength, 25° C.; prior art ligands, literature data; cited from earlier work"}, "[2]": {"system": "mouse fibroblast LTK cell line", "test": "Two-photon emission ratio imaging of fixed fibroblast cells", "format": "cell-based", "description": "FIG. 5. Emission ratio images of fibroblast (LTK) cells treated with Zinbo-5. (A) Brightfield transmission image; (B) ratio image of the intensities at 445 nm and 402 nm; (C) ratio image following a 30 minute treatment with 10 μM zinc sulfate and 20 μM pyrithione at pH 7.4, 25° C., followed by wash with Zinbo-5 stock; (D) ratio image of the same field after a 15 minute treatment with 1 mM TPEN.\nThe Zinbo-5 probe was tested in the mouse fibroblast LTK cell line. Cells were fixed, treated with a saturated solution of Zinbo-5 and then imaged with two-photon excitation (TPE) laser scanning microscopy using on Zeiss 510 LSM (upright configuration). The excitation beam produced by the femtosecond pulsed Ti:sapphire laser (Tsunami, Spectra-Physics; 8 W Millennia pump) was tuned to 710 nm, (pumping power 6.5 W with 0.5 W entering the Zeiss AOM) was passed through an LSM 510 microscope with an HFT 650 dichroic (Zeiss) and focused onto coverslip adherent fibroblasts using a 63x oil-immersion objective (Zeiss). The NLO META scan head (Zeiss) allowed data collection in 10.7 nm windows centered at 445 nm and 402 nm.\nCells were imaged in the presence of Zinbo-5 to provide the contrast of unbound dye outside of the cells (FIG. 5). After imaging, the same field of cells was treated with 10 μM zinc sulfate and 20 μM pyrithione, a zinc-selective ionophore, resulting in an anticipated increase in the intracellular ratio of emissions from 445 nm and 402 nm (FIG. 5, d-f). Finally, the intracellular ratio was made equal to that of the surrounding unbound dye by treating the same field of view with TPEN (FIG. 5, g-i).\nLTK cells were grown as previously published (Nasir, M. S., et al., JBIC (1999) 4:775-783). Cells grown on coverslips were fixed with 4% formaldehyde on ice for 20 minutes and washed with cold PBS before staining. […] Coverslips were attached to slides using Secure-Seal spacers (Molecular Probes) with the saturated staining solution in the spacer well. […]"}, "[3]": {"test": "Binding constant determination: fluorescence intensity ratio (or UV absorbance) in Zn2+/EGTA buffered solutions", "description": "FIG. 2. (A) Emission spectra of Zinbo-5 with the excitation at 356 nm in Zn^2+/EGTA buffered system (50 mM HEPES, pH 7.20, 0.1 M KNO3; 10 mM EGTA, 1-9 mM zinc sulfate) at 0, 0.14, 0.29, 0.66, 1.1, 1.8, 2.6, 4.0, 6.1, and 11 nM free Zn^2+, respectively. (B) Plots of the fluorescence intensity ratio between 395 nm and 443 nm (I443/I395) with a best curve for a dissociation constant of 2.1±0.1×10^−9.\nFIG. 3. UV determination of dissociation constant, Kd: (A) Absorption ratio between at 340 nm and at 374 nm (Abs374/Abs340) in Zn^2+-buffered solution (50 mM HEPES, pH 7.20, 0.1 M KNO3; […], 1-9 mM zinc sulfate).\nA series of HEPES (2-[4-(2-hydoroxyethyl)-1-piperazinyl]ethanesulfonic acid) buffer solutions (50 mM, pH 7.20, 0.1 M KNO3) containing various amounts of ZnSO4 (0˜9.5 mM) and 10 mM of EGTA (ethylenebis(oxyethylenenitrilo) tetraacetic acid) were prepared. The concentration of free Zn^2+ was calculated with [EGTA]total, [Zn^2+]total, and K′Zn-EGTA, the apparent binding constant at a given pH and ionic strength. […]\nThe ratio between 395 nm and 443 nm intensities in the emission spectrum of each solution was measured with the excitation wavelength at 356 nm and was fitted to the following equation (Eq. 2). […]"}, "[4]": {"test": "Calculated pZn values (-log[Zn]free) for a ligand/zinc solution", "format": "binding", "excerpt": "[…] […] The Zn^2+ affinity of Zinbo-5 is much higher than that of di(2-picolyl)amine (DPA), indicating—without limitation—that the phenolate oxygen and benoxazole nitrogen are likely chelating the metal as the third and fourth ligands."}, "[5]": {"test": "Metal ion selectivity of fluorescence (ratio I443/I395) in biological buffers", "description": "FIG. 4. Metal ion selectivity of Zinbo-5. Bars are a presentation of the fluorescence ratio I443/I395. Heavy metals (20 μM) and Na^+, K^+, Ca^2+, Mg^2+ (5 mM) were added to 1.5 μM Zinbo-5 in the presence of 10 μM EDTA."}, "[6]": {"test": "Maximal water solubility (saturated staining solution)", "format": "physicochemical", "details": "PBS (saturated staining solution), PBS with DMSO stock, on ice"}, "[7]": {"details": "heavy metals 20 μM, 1.5 μM probe, 10 μM EDTA"}},
  "note": "Read-outs that look alike come from different tables or passages of the source.",
  "data": [
    {"molecule": "O=C(O)CN(CCOCCOCCN(CC(=O)O)CC(=O)O)CC(=O)O", "note": "[EGTA, ethylenebis(oxyethylenenitrilo) tetraacetic acid]", "values": [
      {"measurement": "Calculated pZn (-log[Zn]free)", "setting": "[1]", "value": 9.5}
    ]},
    {"molecule": "c1ccc(CN(CCN(Cc2ccccn2)Cc2ccccn2)Cc2ccccn2)nc1", "note": "[TPEN, N,N,N′,N′-tetrakis (2-pyridylmethyl) ethylenediamine, reference compound]", "values": [
      {"measurement": "decrease of the intracellular emission ratio", "setting": "[2]; LTK cells stained with Zinbo-5, zinc loaded, then excess TPEN (1 mM, 15 minute)", "value": 30, "unit": "%"},
      {"measurement": "Calculated pZn (-log[Zn]free)", "setting": "[1]", "value": 16.0}
    ]},
    {"molecule": "COc1cc(O)c(-c2nc3c(CNCc4ccccn4)cccc3o2)cc1OC", "note": "[Zinbo-5, 2-(4,5-dimethoxy-2-hydroxyphenyl)-4-(2-pyridlmethyl)aminomethylbenzoxazole]", "values": [
      {"measurement": "Zn^2+ affinity compared with di(2-picolyl)amine (DPA)", "setting": "[3]", "value": "much higher"},
      {"measurement": "Kd", "setting": "[3]; pH 7.20, fluorescence intensity ratio between 395 nm and 443 nm against log[Zn2+]free, read-out: apparent dissociation constant (Kd) for Zn^2+", "value": "2.2 ± 0.1", "unit": "nM"},
      {"measurement": "Calculated pZn (-log[Zn]free)", "setting": "[4]; 10 μM ligand, 1 μM Zn(II), pH 7.20, 0.1 M ionic strength, 25° C., the patent's own probe", "value": 9.3},
      {"measurement": "pZn value (-log[Zn^2+])", "setting": "[4]; aqueous solution containing 10 µM ligand and 1 µM zinc ion at pH 7.20 and 0.1 M ionic strength", "value": 9.3},
      {"measurement": "fluorescence response to Mn^2+, Co^2+, Ni^2+, Fe^+ and Cu^2+", "setting": "[5]; [7]", "value": "quenched the fluorescence"},
      {"measurement": "fluorescence response to Zn^2+ and Cd^2+", "setting": "[5]; [7]", "value": "induced an emission shift"},
      {"measurement": "fluorescence response to Na^+, K^+, Ca^2+ and Mg^2+", "setting": "[5]; metal concentrations as high as 5 mM", "value": "no fluorescent response"},
      {"measurement": "cell permeability", "setting": "[2]", "value": "cell permeable"},
      {"measurement": "average intracellular increase in the emission ratio (445 nm/402 nm)", "setting": "[2]; LTK cells after 10 μM zinc sulfate and 20 μM pyrithione", "value": "ca. 15%"},
      {"measurement": "solubility", "setting": "[6]", "value": 1.5, "unit": "µM"}
    ]},
    {"molecule": "carbonic anhydrase", "values": [
      {"measurement": "Calculated pZn (-log[Zn]free)", "setting": "[1]", "value": 12.4}
    ]},
    {"molecule": "O=C(O)CN(CCN(CC(=O)O)CC(=O)O)CC(=O)O", "note": "[EDTA]", "values": [
      {"measurement": "Calculated pZn (-log[Zn]free)", "setting": "[1]", "value": 14.3}
    ]},
    {"molecule": "O=C1OC2(c3ccccc31)c1cc(Cl)c(O)c(CN(Cc3ccccn3)Cc3ccccn3)c1Oc1c2cc(Cl)c(O)c1CN(Cc1ccccn1)Cc1ccccn1", "note": "[Zinpyr-1]", "values": [
      {"measurement": "Calculated pZn (-log[Zn]free)", "setting": "[1]", "value": 10.1}
    ]},
    {"molecule": "O=C(O)CN(CC(=O)O)CC(=O)O", "note": "[NTA]", "values": [
      {"measurement": "Calculated pZn (-log[Zn]free)", "setting": "[1]", "value": 9.0}
    ]},
    {"molecule": "Cc1ccc(S(=O)(=O)Nc2cc(OCC(=O)O)cc3ccc(C)nc23)cc1", "note": "[Zinquin acid]", "values": [
      {"measurement": "Calculated pZn (-log[Zn]free)", "setting": "[1]", "value": 9.3}
    ]},
    {"molecule": "O=C(O)c1cc(NCCN(Cc2ccccn2)Cc2ccccn2)ccc1-c1c2ccc(=O)cc-2oc2cc(O)ccc12", "note": "[ZnAF-1]", "values": [
      {"measurement": "Calculated pZn (-log[Zn]free)", "setting": "[1]", "value": 10.1}
    ]}
  ]
}
